From the Deep4Chem optical property database
Each block holds one compound with its values, some of them ahead of it.

Assay: solvent given as SMILES

absorption maximum (in C1COCCO1): 457 nm
Compound: COc1ccc(C2=C/C(=C\c3ccc(C#N)cc3)C(=O)N2)cc1OC

absorption maximum (in ClCCl): 257 nm
Compound: COc1ccc(-c2cc(-c3ccccc3)nn2C)cc1

absorption maximum (in ClC(Cl)Cl): 422 nm
Compound: CCCN1c2ccccc2Sc2cc(/C=C\c3cc(=O)oc4cc(NC(=O)OCC)ccc34)ccc21

absorption maximum (in ClCCl): 440 nm
Compound: CCN(CC)c1ccc2cc(-c3nc4cc(C(=O)Nc5cccc(C)c5)ccc4o3)c(=O)oc2c1

absorption maximum (in CC#N): 411 nm
Compound: CN(C)c1ccc(-c2nc3nc4ccccc4nc3n2-c2ccccc2)cc1

absorption maximum (in ClC(Cl)Cl): 432 nm
Compound: F[B-]1(F)OC(c2cccc(Br)c2)=Cc2c3ccccc3c3ccccc3[n+]21

absorption maximum (in ClCCl): 376 nm
Compound: COc1ccc(-c2cc3c(ccc4sc(/C=C/c5cccs5)cc43)s2)cc1

absorption maximum (in O): 416 nm
Compound: O=C(O)CCCCCn1c2ccc(Br)cc2c(=O)c2cc(S(=O)(=O)O)ccc21

absorption maximum (in ClCCl): 390 nm
Compound: COc1cc(/C=C/c2nc(N3CCOCC3)c3c([n+]2[O-])CCCC3)cc(OC)c1OC

absorption maximum (in ClCCl): 393 nm
Compound: COc1ccc(C#Cc2nc3ccccc3nc2-c2ccn(-c3ccccc3)c2)cc1

absorption maximum (in ClCCl): 339 nm
Compound: c1ccc(C2=C(c3ccccn3)[Si](c3ccccc3)(c3ccccc3)c3ccccc32)cc1

absorption maximum (in ClCCl): 343 nm
Compound: CC(C)(C)NC(=O)c1ccc(Br)c2ccc3c4ccccc4c4ccccc4c3c12

absorption maximum (in ClC(Cl)Cl): 333 nm
Compound: CCCCn1c2ccccc2c2ccc3c4cc(-c5ccc(OC)cc5)ccc4n(CCCC)c3c21

absorption maximum (in CC#N): 398 nm
Compound: CCCCCCCCCCOc1cc2cc(C#Cc3ccc(/C=C(\C#N)C(=O)O)cc3)c(=O)oc2cc1OCCCCCCCCCC

absorption maximum (in ClCCl): 458 nm
Compound: C[Si]1(C)c2cc(-c3ccc(-c4cccs4)s3)ccc2C=Cc2ccc(-c3ccc(-c4cccs4)s3)cc21

absorption maximum (in ClC(Cl)Cl): 406 nm
Compound: c1ccc(-c2nc(-c3ccccn3)[se]c2N(c2ccccc2)c2ccccc2)cc1

absorption maximum (in C1COCCO1): 336 nm
absorption maximum (in CC#N): 336 nm
absorption maximum (in CO): 340 nm
absorption maximum (in ClCCl): 343 nm
Compound: COC(=O)CNC(=O)c1nc2c(N(C)C)nc(N(C)C)nc2n1Cc1ccccc1

absorption maximum (in ClCCl): 311 nm
Compound: CCOC(=O)C1=C(C(=O)OCC)C2(c3ccccc3-c3ccccc32)[C@@H](c2ccccc2)C=C2c3cc(OC)c(OC)cc3CCN21

absorption maximum (in ClC(Cl)Cl): 650 nm
Compound: CN1C(=CC2=C([S-])C(=CC3=[N+](C)c4ccccc4C3(C)C)C2=O)C(C)(C)c2ccccc21

absorption maximum (in O): 306 nm
Compound: O=c1ccc2ccccc2o1

absorption maximum (in ClCCl): 332 nm
Compound: COc1cc(-c2cnc(-c3ccncc3)o2)cc(OC)c1OC

Further lines, the compound ahead of its results:

Compound: C/C=C/C=C/C1=NC(=C\c2ccc(O)cc2)/C(=O)N1C
absorption maximum (in ClC(Cl)Cl): 425 nm
absorption maximum (in O): 421 nm

Compound: Fc1c(-c2nnc(-c3ccccc3)o2)c(-n2c3ccccc3c3ccccc32)c(F)c(-n2c3ccccc3c3ccccc32)c1-n1c2ccccc2c2ccccc21
absorption maximum (in Cc1ccccc1): 361 nm

Compound: Cc1ccc(-n2c3ccccc3c3cc(C=C(C#N)C#N)ccc32)cc1
absorption maximum (in C1CCOC1): 407 nm
absorption maximum (in CC#N): 402 nm
absorption maximum (in CC(C)=O): 402 nm
absorption maximum (in CCOC(C)=O): 400 nm
absorption maximum (in CO): 402 nm
absorption maximum (in CS(C)=O): 407 nm
absorption maximum (in Cc1ccccc1): 406 nm
absorption maximum (in ClC(Cl)Cl): 413 nm

Compound: CCN(CC)c1ccc2cc(-c3cc(SC)c(C#N)c(=O)o3)c(=O)oc2c1
absorption maximum (in C1CCOC1): 512 nm
absorption maximum (in CC#N): 514 nm
absorption maximum (in CC(C)=O): 514 nm
absorption maximum (in CCOC(C)=O): 509 nm
absorption maximum (in CN(C)C=O): 521 nm
absorption maximum (in CO): 514 nm
absorption maximum (in CS(C)=O): 527 nm
absorption maximum (in Cc1ccccc1): 509 nm
absorption maximum (in ClC(Cl)Cl): 517 nm
absorption maximum (in ClCCl): 520 nm

Compound: CC(C)(C)c1ccc2c(c1)c1cc(C(C)(C)C)ccc1n2-c1ccc(N(c2ccc(-c3ccc(-c4ccc(-c5ccc(-c6ccc(N(c7ccc(-n8c9ccc(C(C)(C)C)cc9c9cc(C(C)(C)C)ccc98)cc7)c7ccc(-n8c9ccc(C(C)(C)C)cc9c9cc(C(C)(C)C)ccc98)cc7)cc6)cc5)c5nsnc45)cc3)cc2)c2ccc(-n3c4ccc(C(C)(C)C)cc4c4cc(C(C)(C)C)ccc43)cc2)cc1
absorption maximum (in ClCCl): 422 nm

Compound: c1cc2c3c(c1)-c1cccc4ccn(c14)B3n1ccc3cccc-2c31
absorption maximum (in C1CCOC1): 385 nm

Compound: CCCCCCCCN1C(=O)c2ccc3c4c(-c5ccc(-n6c7ccccc7c7ccccc76)cc5)cc5c6c(ccc(c7c(-c8ccc(-n9c%10ccccc%10c%10ccccc%109)cc8)cc(c2c37)C1=O)c64)C(=O)N(CCCCCCCC)C5=O
absorption maximum (in ClC(Cl)Cl): 561 nm

Compound: O=c1c2cc(F)c(O)cc2oc2cc(N3CCCCC3)c(F)cc12
absorption maximum (in CCO): 373 nm

Compound: [C-]#[N+]c1ccc(-c2ccc(N(C)C)cc2)cc1
absorption maximum (in C1CCCCC1): 325 nm
absorption maximum (in C1CCOC1): 334 nm
absorption maximum (in C1COCCO1): 330 nm
absorption maximum (in CC#N): 333 nm
absorption maximum (in CC(C)=O): 327 nm
absorption maximum (in CCCCCC): 323 nm
absorption maximum (in CCOC(C)=O): 330 nm
absorption maximum (in CN(C)C=O): 339 nm
absorption maximum (in CO): 333 nm
absorption maximum (in CS(C)=O): 340 nm
absorption maximum (in Cc1ccccc1): 329 nm
absorption maximum (in ClC(Cl)Cl): 331 nm
absorption maximum (in ClCCl): 336 nm
absorption maximum (in O): 315 nm
absorption maximum (in c1ccncc1): 340 nm

Compound: c1ccc2c(c1)Cc1ccccc1N2c1c2ccccc2cc2ccccc12
absorption maximum (in Cc1ccccc1): 416 nm

Compound: COc1cc(/C=C/c2cc(OC)c(-c3nc(-c4ccccc4)c(-c4ccccc4)[nH]3)cc2OC)c(OC)cc1/C=C/c1cc(OC)c(-c2nc(-c3ccccc3)c(-c3ccccc3)[nH]2)cc1OC
absorption maximum (in C1CCOC1): 444 nm
absorption maximum (in CC#N): 441 nm
absorption maximum (in Cc1ccccc1): 447 nm

Compound: CC1(C)c2ccccc2N(c2ccccc2)c2ccc(-c3nc(-c4ccccc4)nc(-c4ccccc4)n3)cc21
absorption maximum (in Cc1ccccc1): 389.97 nm

Compound: F[B-]1(F)n2c(cc(-c3ccccc3)c2-c2ccccc2)C(c2ccccc2)=C2C=C(c3ccccc3)C(c3ccccc3)=[N+]21
absorption maximum (in C1CCOC1): 586 nm
absorption maximum (in CC#N): 576 nm
absorption maximum (in Cc1ccccc1): 592 nm
absorption maximum (in ClCCl): 584 nm

Compound: Cc1c(C)c(-c2ccc(-c3cccnc3)cc2)c(C)c(C)c1B(c1c(C)c(C)c(-c2ccc(-c3cccnc3)cc2)c(C)c1C)c1c(C)c(C)c(-c2ccc(-c3cccnc3)cc2)c(C)c1C
absorption maximum (in ClCCl): 331 nm

Compound: C(#Cc1cccs1)C(C#Cc1cccs1)=Cc1ccc(C=C(C#Cc2cccs2)C#Cc2cccs2)s1
absorption maximum (in ClC(Cl)Cl): 486 nm

Compound: Cc1ccc(N2C(c3ccccc3[NH-])=[NH+]C(c3ccccc3)C2c2ccccc2)cc1 (stereo unspecified)
absorption maximum (in Cc1ccccc1): 328 nm

Compound: Cn1c2cc(N3CCCCC3)c(F)cc2c(=O)c2cc(F)c(N3CCCCC3)cc21
absorption maximum (in CCO): 368 nm

Compound: CCCCN(CCCC)c1ccc(C#Cc2cc(C#Cc3ccc(C(F)(F)F)cc3)c(C#Cc3ccc(C(F)(F)F)cc3)cc2C#Cc2ccc(N(CCCC)CCCC)cc2)cc1
absorption maximum (in ClCCl): 407 nm

Compound: CCCCCCCCCCCCCCCCn1c(-c2cc(-c3nc4ccc(C)cc4n3CCCCCCCCCCCCCCCC)cc(-c3nc4ccc(C)cc4n3CCCCCCCCCCCCCCCC)c2)nc2ccc(C)cc21
absorption maximum (in ClCCl): 306 nm

Compound: CCCCCCCCCCOc1cc(OCCCCCCCCCC)cc(C2=C3C(/C=C/c4ccc(OC)cc4)=CC(/C=C/c4ccc(OC)cc4)=[N+]3[B-](F)(F)n3c(/C=C/c4ccc(OC)cc4)cc(C=Cc4ccc(OC)cc4)c32)c1
absorption maximum (in ClC(Cl)Cl): 689 nm

Compound: Oc1ccccc1-c1nc2c3ccccc3c3ccccc3c2o1
absorption maximum (in Cc1ccccc1): 364 nm

Compound: C(=C\N1CCCC1)/c1nc2ccccc2nc1-c1ccccc1
absorption maximum (in CC#N): 438 nm

Compound: CCCCC(CC)Cn1c2cc(C#N)ccc2c2ccc(C#Cc3ccc4ccc5ccc(C#Cc6ccc7c8ccc(C#N)cc8n(CC(CC)CCCC)c7c6)c6ccc3c4c56)cc21 (stereo unspecified)
absorption maximum (in ClCCl): 447 nm

Compound: CCCCN(CCCC)c1ccc(C#Cc2cc(C#Cc3ccc(N(CCCC)CCCC)cc3)c(C#Cc3cc(C(F)(F)F)cc(C(F)(F)F)c3)cc2C#Cc2cc(C(F)(F)F)cc(C(F)(F)F)c2)cc1
absorption maximum (in ClCCl): 433 nm

Compound: Cc1cc(C)c(C2=C3C=c4c(c5ccc(C(C)(C)C)cc5c5cc(C(C)(C)C)ccc45)=[N+]3[B-](F)(F)n3c2cc2c4ccc(C(C)(C)C)cc4c4cc(C(C)(C)C)ccc4c23)c(C)c1
absorption maximum (in C1CCCCC1): 693 nm
absorption maximum (in C1CCOC1): 692 nm
absorption maximum (in CC#N): 686 nm
absorption maximum (in Cc1ccccc1): 698 nm
absorption maximum (in ClCCl): 693 nm

Compound: COCCC1=Cc2nc1ccc1[nH]c(cc1CCOC)c1nc(c(OC(C)=O)cc3[nH]c2cc3CCOC)C(CCOC)=C1
absorption maximum (in Cc1ccccc1): 647 nm

Compound: C1=CN2C[n+]3ccc4ccccc4c3N=C2c2ccccc21
absorption maximum (in CO): 453 nm

Compound: [O-][n+]1c(/C=C/c2ccc(/C=C/c3ccccc3)cc2)nc(N2CCOCC2)c2c1CCCC2
absorption maximum (in ClCCl): 406 nm

Compound: NS(=O)(=O)c1ccc(N2N=C(c3ccc(O)cc3)CC2c2ccccc2)cc1 (stereo unspecified)
absorption maximum (in C1CCOC1): 359 nm
absorption maximum (in C1COCCO1): 359 nm
absorption maximum (in CC#N): 358 nm
absorption maximum (in CC(C)O): 357 nm
absorption maximum (in CCO): 357 nm
absorption maximum (in CCOC(C)=O): 357 nm
absorption maximum (in CN(C)C=O): 361 nm
absorption maximum (in CO): 357 nm
absorption maximum (in CS(C)=O): 364 nm
absorption maximum (in O): 359 nm

Compound: O=[N+]([O-])c1ccc(C#Cc2ccccc2C#Cc2ccc([N+](=O)[O-])cc2)cc1
absorption maximum (in CC#N): 350 nm

Compound: N#Cc1ccc(N2c3c(sc4ccccc34)Sc3sc4ccccc4c32)cc1
absorption maximum (in ClCCl): 309 nm

Compound: C(#Cc1cc2ccc3cc(C#Cc4ccccc4)cc4ccc(c1)c2c34)c1ccccc1
absorption maximum (in Cc1ccccc1): 410 nm

Compound: CCN1/C(=C\c2c(-c3ccc(N(C)C)cc3)c(=O)c2=O)C=Cc2ccccc21
absorption maximum (in C1CCCCC1): 359 nm
absorption maximum (in Cc1ccccc1): 362 nm
absorption maximum (in ClCCl): 509 nm

Compound: Cc1ccc(C2=C3C=CC(Oc4ccccc4)=[N+]3[B-](F)(F)n3c(Oc4ccccc4)ccc32)cc1
absorption maximum (in C1CCOC1): 516 nm

Compound: Cc1cccc2[n+]1[B-](F)(F)n1c(c3cccc4cccc1c43)=N2
absorption maximum (in C1CCOC1): 472 nm
absorption maximum (in CC#N): 465 nm
absorption maximum (in CCCCCC): 464 nm
absorption maximum (in Cc1ccccc1): 475 nm
absorption maximum (in ClCCl): 441 nm

Compound: CSC1=C(C)C2=C(c3ccc(C)cc3)c3c(C)c(Cl)c(C)n3[B-](F)(F)[N+]2=C1C
absorption maximum (in C1CCOC1): 518 nm

Compound: CCC1(CC)c2cc(Br)ccc2-c2c1c1c(c3c2C(CC)(CC)c2cc(-c4cccs4)ccc2-3)C(CC)(CC)c2cc(-c3cccs3)ccc2-1
absorption maximum (in C1CCOC1): 338 nm
